Patent publication US12569557B2, “Targeting moDC to enhance vaccine efficacy on mucosal surface” (UNIVERSITY OF FLORIDA RESEARCH FOUNDATION, INCORPORATED, priority 2018, dated 2026)
Entries after “also recorded” stand apart in the source; their conditions may differ.

Experiments:
moDCs = assay: Antigen presentation by lung moDCs after intranasal CDG and Eα-OVA (YAE mAb); assay type: in vivo, C57BL/6 mice; settings: CDG and Eα-OVA i.n.
From the text: How does non-migratory moDCs (FIGS. 1D & 12B)^25,33 promote CDG-induced antibody responses? moDCs were efficient at antigen processing (FIG. 8D). We first asked if they presented antigen on cell surface. We intranasally administered C57BL/6 mice with CDG and Eα-OVA, and detected I-A^b/Eα^+ cells with the YAE mAb. Indeed, CDG increased YAE^+ moDCs in vivo (FIG. 9A).

TNFR2 = assay type: in vivo, mice
lung TNF [1] = settings: administered intranasally; cited from earlier work
anti-PspA IgG and IgA = assay: Intranasal CDG/PspA immunization: PspA-specific antibodies in serum and BALF by ELISA; assay type: in vivo, mice
Protocol: (§1) Groups of mice (4 per group) were intranasally vaccinated with CDG (5 μg, Invivogen, cat #vac-cdg) adjuvanted PspA (2 μg, BEI Resources) or PspA alone^17. Mice were immunized twice at 14 days interval. For intranasal vaccination, animals were anesthetized using isoflurane in an E-Z Anesthesia system (Euthanex Corp, Palmer, Pa.). PspA, with or without CDG was administered in 20 μl saline. Sera were collected 14 days after the last immunization. The PspA-specific Abs were determined by ELISA. Secondary Abs used were anti-mouse IgG1-HRP (Southern Biotech, cat #1070-05), anti-mouse IgG2C-HRP (Southern Biotech, cat #1079-05), and anti-mouse IgA-HRP (Southern Biotech, cat #1040-05). To determine Ag-specific Th response, splenocytes from PspA or CDG+PspA immunized mice were stimulated with 5 μg/ml PspA for four days in culture. Th1, Th2, and Th17 cytokines were measured in the supernatant by ELISA.

[2] = test system: PspA-specific Th1, Th2, Th17 responses; assay: Ex vivo recall of PspA-specific Th responses in lung cells and splenocytes of immunized mice; settings: immunized IRF4fl/flCD11ccre mice
Protocol: as §1

RelA, RelB, TBK1 = assay: pRelA, pRelB and p-TBK1 in lung DC subsets after intranasal CDG, flow cytometry; assay type: in vivo, mice
[3] = test system: H5N1 influenza, Acinetobacter baumannii, Staphylococcus aureus, Klebsiella pneumoniae and Streptococcus pneumoniae; settings: cited from earlier work
[4] = cited from earlier work
lung DCs = assay: Lung DC / alveolar macrophage maturation (CD86, CCR7) after intranasal CDG, flow cytometry; assay type: in vivo, mice
mTNF = assay: Cell surface mTNF expression on lung DCs detected with TNFR2-Fc recombinant protein; assay type: in vivo; settings: WT mice, i.n. CDG 16 hours
Protocol: We intranasally administered CDG to WT mice for 16 hours and detected cell surface mTNF expression using […] recombinant protein (FIG. 8A).
The following Abs from Biolegend were used in the flow cytometry: CD80 (16-10A1), CD86 (GL1), CD11B (M1/70), CD11C (N418), FcεRIa (MAR-1), MHC II (M5/114.15.2), CD103(2E7), CD24 (m1/69), CD64 (x54-5/7.1), CCR7 (4B12), TNF (MP6-XT22), TNFR2 (TR75-89), PD-L1 (10F.9G2), BTLA (8F4), PD-L2 (TY25), CD301b (URA-1), CX3CR1 (SA011F11), CD172a (P84), CD44 (IM7). The following Abs were from Cell Signaling: p-TBK1 (ser172, d52c2), p-RelB (ser552, d41b9), p-RelA (ser536, cat #4887S). The following reagents were from Sino Biological: TNFR2 Ab (cat #50128-R112-A), TNFR2-Fc (mouse TNFR2 extracellular domain, Met 1-Gly 258, was fused with the Fc region of human IgG1 at the C-terminus, cat #50128-M02H), human IgG1 Fc (cat #10702-HNAH). Alexa Fluor®488 mouse anti-human IgG1 Fc was from Invitrogen (cat #A-10631). FITC-CDG (2′-Fluo-AHC-CDG) was from Biolog (cat #F009). Cell sorting was performed on the BD FACSAriaIII Flow Cytometer and Cell Sorter. After sorting, dendritic cells were CFSE labeled, according to the protocol from the manufacturer (Invitrogen).

lung TNF [5] = assay: Detection of lung cytokine production after intranasal CDG (ELISA of lung homogenates); assay type: in vivo, mice
Protocol: Mice were intranasally administered 5 μg CDG, then sacrificed after 5 hrs by C02 asphyxiation^17. Lungs were perfused with cold PBS. The harvested lungs were washed with PBS once, then stored in 0.7 ml Tissue protein extraction reagent (T-PER) (Thermo Scientific, cat #78510) containing protease inhibitors (Roche, cat #11836153001) at −80° C. Later, the lung was thawed on ice and homogenized with Minilys® (Precellys, 5,000 RPM for 30 sec) using Precellys lysing kit (Precellys, cat #KT03961). Lung homogenates were transferred to a 1.5 ml tube and spun at 14,000 g for 30 min at 4° C. The supernatant was collected and analyzed for TNF production by ELISA (eBioscience, cat #88-7324).

SMILES: Nc1nc2c(ncn2[C@@H]2O[C@@H]3COP(=O)(O)O[C@H]4[C@@H](O)[C@H](n5cnc6c(=O)[nH]c(N)nc65)O[C@@H]4COP(=O)(O)O[C@H]3[C@H]2O)c(=O)[nH]1 [CDG, cyclic di-GMP]
- YAE+ moDCs (I-Ab/Eα presentation) (moDCs): increased
- TNFR2 expression on moDCs (TNFR2; WT mice): induced
- TNFR2 expression on lung cDC1 (TNFR2; WT mice, i.n. CDG 16 hrs): dramatically increased
- PD-L1 expression on transferred TNFR2+ and TNFR2− cDC2 (TNFR2; cDC2 subsets transferred into MPYS−/− mice, CDG i.n. 16 hrs): did not affect
- Lung production of TNF, IL-1β and IL-10 (lung TNF [1]): induced
- Anti-PspA Abs in BALF and serum (anti-PspA IgG and IgA; IRF4fl/flCD11ccre mice, PspA with CDG i.n.): did not induce
- Humoral and cellular immune responses (anti-PspA IgG and IgA; TNFR1−/− mice): reduced humoral and cellular immune responses
- Adjuvant activity (humoral and cellular responses) (anti-PspA IgG and IgA; TNFR2−/− mice): completely lost its adjuvant activity
- PspA-specific Th1, Th2, Th17 responses, ex vivo recall in lung cells and splenocytes [2]: did not show PspA-specific Th1, Th2 or Th17 responses
- TBK1 activation (p-TBK1) in cDC2 (RelA, RelB, TBK1; TNFR2−/− mice): activated
- RelA activation in lung cDC1 (RelA, RelB, TBK1; i.n. CDG): activated RelA
- RelA and RelB activation in lung moDCs (RelA, RelB, TBK1; i.n. CDG): activated both RelA and RelB
- RelB activation in lung cDC2 (RelA, RelB, TBK1; i.n. CDG): activated RelB; also recorded: further activate RelB
- Adjuvant activity / response in MPYS−/− mice ([3]; MPYS−/− mice): do not respond
- Cancer vaccine adjuvant activity ([3]; animal models): showed cancer vaccine adjuvant activity
- Activation of Th1 and Th2 immune response vs LPS, CpG ODN or aluminum salt based adjuvant ([3]; mice): more potent activator
- Over-inflammatory responses in the lung ([4]; intranasal adjuvant): does not induce over-inflammatory responses
- Acute toxicity as a mucosal adjuvant ([4]; mice): does not cause acute toxicity
- CD86 on lung moDCs (lung DCs; Batf3−/− mice): unaltered
- CD86 on lung moDCs (lung DCs; IRF4fl/flCD11ccre mice): failed to upregulate CD86
- Activation of lung DCs (CD86) (lung DCs; MPYSfl/flLysMcre mice): unaltered
- CD86 expression on moDCs (lung DCs; MPYSfl/flLysMcre mice): normal levels of CD86 expression
- CD86 on lung cDC1 (lung DCs; RelBfl/flCD11ccre mice): upregulated CD86
- CD86 on lung cDC2 (lung DCs; RelBfl/flCD11ccre mice): failed to upregulate CD86
- CD86 on lung moDCs (lung DCs; RelBfl/flCD11ccre mice): induced
- CD86 and CCR7 expression on cDC1 (lung DCs; TNFR2−/− mice): induced
- CD86 on lung moDCs (lung DCs; TNFR2−/− mice): did not upregulate CD86
- CD86 or CCR7 expression in lung cDC2 (lung DCs; TNFR2−/− mice): did not enhance
- CD86 expression on alveolar macrophages (lung DCs; WT mice, CDG treatment i.n.): did not increase expression of CD86
- CCR7 expression on lung moDCs (lung DCs; WT mice, i.n. CDG): did not increase CCR7
- CD86 and CCR7 expression in lung cDC1 and cDC2 (lung DCs; WT mice, i.n. CDG): increased
- CD86 expression on lung moDCs (lung DCs; WT mice, i.n. CDG): increased expression of CD86
- Migration of activated moDCs to lung draining lymph nodes (lung DCs; WT mice, i.n. CDG): did not migrate to dLNs
- mTNF expression on TNFR2+ cDC2 (mTNF): expressed little mTNF
- mTNF expression on TNFR2− cDC2 (mTNF): main mTNF^+ cDC2 cells
- CDG-induced lung MCP-1 production (lung TNF [5]; Batf3−/− mice (lack cDC1)): largely absent
- CDG-induced lung production of TNF, IL-1β and IL-12p70 (lung TNF [5]; IRF4fl/flCD11ccre mice (lack cDC2)): dramatically reduced
- CDG-induced lung TNF production (lung TNF [5]; TBK1fl/flVavCre mice): dramatically reduced
- Lung TNF (lung TNF [5]; TNFR2−/− mice): induced
